Data on two molecules can be found in ChEMBL document CHEMBL1130309, “Syntheses and anticancer activity of ribonucleoside analogues containing thio-substituted five-membered heterocyclic base” (Bioorg Med Chem Lett, 1997).

The structures appear in SMILES notation.

Test [1] concerns SNB-19. The experiment in a line: Compound was evaluated in vitro against NCI CNS cancer cell line SNB19; Not active. Format: functional, cell-based, Homo sapiens.
Test [2] relates to SNB-19. The experiment in a line: Compound was evaluated in vitro against NCI CNS cancer cell line SNB19. Particulars: Homo sapiens; call rule not given here. Format: functional, cell-based.

Turning to `Nc1nn([C@@H]2O[C@H](COCc3ccccc3)[C@@H](OCc3ccccc3)[C@H]2OCc2ccccc2)c(=S)s1`, in test [1], the half-inhibitory concentration (IC50) – broadly, the concentration needed to halve the response being measured – is listed as “Not Active”.
In turn, `Nc1nn(C2O[C@H](CO)[C@@H](O)[C@H]2O)c(=S)s1` (some centres not stated) registered an IC50 in test [2] of 39.4 nM.
